Laboratory results as given in patent US20060069132A1, “Azolecarboxamide herbicides” (priority 2004, published 2006).

Columns and labels:
cocklebur = assay: Test C pre-/postemergence herbicide test; assay type: in vivo, Xanthium strumarium; conditions: for Plant response rating, Cocklebur / Plant response rating (0 = no effect, 100 = complete control), Cocklebur: preemergence
Outline: (§1)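 Seeds were planted and sprayed preemergence with test chemicals in a non-phytotoxic solvent mixture containing surfactant; postemergence treatments went onto plants 2 to 18 cm tall (1- to 4-leaf stage). After 12 to 14 days in a greenhouse, injury was rated visually against untreated controls on a 0–100 scale.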

corn = assay: Test C pre-/postemergence herbicide test; assay type: in vivo, Zea mays; conditions: for Plant response rating, Corn / Plant response rating (0 = no effect, 100 = complete control), Corn: preemergence
Outline: as §1

large crabgrass = assay: Test C pre-/postemergence herbicide test; assay type: in vivo, Digitaria sanguinalis; conditions: for Plant response rating, Crabgrass, Large / Plant response rating (0 = no effect, 100 = complete control), Crabgrass, Large: preemergence
Outline: as §1

eastern black nightshade = assay: Test C pre-/postemergence herbicide test; assay type: in vivo, Solanum ptycanthum; conditions: for Plant response rating, Nightshade / Plant response rating (0 = no effect, 100 = complete control), Nightshade: preemergence
Outline: as §1

yellow nutsedge = assay: Test C pre-/postemergence herbicide test; assay type: in vivo, Cyperus esculentus; conditions: for Plant response rating, Nutsedge, Yellow / Plant response rating (0 = no effect, 100 = complete control), Nutsedge, Yellow: preemergence
Outline: as §1

common ragweed = assay: Test C pre-/postemergence herbicide test; assay type: in vivo, Ambrosia elatior; set-up: key to Plant response rating, Ragweed: 0 = no effect, 100 = complete control; conditions: for Plant response rating, Ragweed / Plant response rating (0 = no effect, 100 = complete control), Ragweed: preemergence
Outline: as §1

velvetleaf = assay: Test C pre-/postemergence herbicide test; assay type: in vivo, Abutilon theophrasti
Outline: as §1

rice = assay: Test C flooded paddy test; assay type: in vivo, Oryza sativa; conditions: for Plant response rating, Rice: 500 g ai/ha, visual rating after 12 to 14 days
Outline: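 Plants were grown to the 1- to 4-leaf stage (2–18 cm) and then treated postemergence, or grown to the 2-leaf stage for the flooded paddy test. They were held in a greenhouse for 12 to 14 days and then scored by eye against controls, where 0 is no effect and 100 is complete control.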

ducksalad = assay: Test C flooded paddy test; assay type: in vivo, Heteranthera limosa; conditions: for Plant response rating, Ducksalad: 500 g ai/ha, visual rating after 12 to 14 days
barnyardgrass = assay: Test C flooded paddy test; assay type: in vivo, Echinochloa crus-galli; conditions: for Plant response rating, Barnyardgrass: 500 g ai/ha, visual rating after 12 to 14 days
Outline: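 Scoring by eye, 12–14 days post-treatment, greenhouse-held plants vs. controls; 0 no effect, 100 complete control. Sprayed at 1–4 leaves (2–18 cm); paddy barnyardgrass at 2 leaves, flooded.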

[1] = 500 g ai/ha, scale 0 to 100 (0 no effect, 100 complete control), visual, 12 to 14 days
[2] = 125 g ai/ha, scale 0 to 100 (0 no effect, 100 complete control)
[3] = 250 g ai/ha, scale of 0 to 100, 0 is no effect, 100 is complete control
[4] = scale 0 to 100 (0 no effect, 100 complete control)
[5] = 62 g ai/ha, scale 0 to 100 (0 no effect, 100 complete control)
[6] = 125 g ai/ha, scale 0 (no effect) to 100 (complete control), visual, 12 to 14 days
[7] = 250 g ai/ha, scale 0 to 100 (0 no effect, 100 complete control), visual, 12 to 14 days
[8] = Preemergence, 500 g ai/ha, scale 0 to 100, 0 no effect, 100 complete control

Cc1nn(C(C)(C)C)nc1C(=O)Nc1cccc(C(=O)N(C)C)c1 [Compound 391]
Plant response rating, Cocklebur (cocklebur; 62 g ai/ha, scale 0 to 100): 20
Plant response rating (0 = no effect, 100 = complete control), Cocklebur (cocklebur; 125 g ai/ha): 45
Plant response rating, Cocklebur (cocklebur; 250 g ai/ha, scale 0-100): 80
Plant response rating, Cocklebur (cocklebur; [1]): 80
Plant response rating, Corn (corn; 62 g ai/ha, scale 0 to 100): 80
Plant response rating (0 = no effect, 100 = complete control), Corn (corn; 125 g ai/ha): 80
Plant response rating, Corn (corn; 250 g ai/ha, scale 0-100): 85
Plant response rating, Corn (corn; [1]): 85
Plant response rating, Crabgrass, Large (large crabgrass; 62 g ai/ha, scale 0 to 100): 98
Plant response rating (0 = no effect, 100 = complete control), Crabgrass, Large (large crabgrass; 125 g ai/ha): 100
Plant response rating, Crabgrass, Large (large crabgrass; 250 g ai/ha, scale 0-100): 100
Plant response rating, Crabgrass, Large (large crabgrass; [1]): 100
Plant response rating, Nightshade (eastern black nightshade; 62 g ai/ha, scale 0 to 100): 90
Plant response rating (0 = no effect, 100 = complete control), Nightshade (eastern black nightshade; 125 g ai/ha): 95
Plant response rating, Nightshade (eastern black nightshade; 250 g ai/ha, scale 0-100): 95
Plant response rating, Nightshade (eastern black nightshade; [1]): 95
Plant response rating, Nutsedge, Yellow (yellow nutsedge; 62 g ai/ha, scale 0 to 100): 5
Plant response rating (0 = no effect, 100 = complete control), Nutsedge, Yellow (yellow nutsedge; 125 g ai/ha): 70
Plant response rating, Nutsedge, Yellow (yellow nutsedge; 250 g ai/ha, scale 0-100): 90
Plant response rating, Nutsedge, Yellow (yellow nutsedge; [1]): 90
Plant response rating, Ragweed (common ragweed; 62 g ai/ha, scale 0 to 100): 85
Plant response rating (0 = no effect, 100 = complete control), Ragweed (common ragweed; 125 g ai/ha): 100
Plant response rating, Ragweed (common ragweed; 250 g ai/ha, scale 0-100): 100
Plant response rating, Ragweed (common ragweed; [1]): 100
Plant response rating, Velvetleaf (velvetleaf; 62 g ai/ha, preemergence, scale 0 to 100): 100
Plant response rating (0 = no effect, 100 = complete control), Velvetleaf (velvetleaf; 125 g ai/ha, preemergence): 100
Plant response rating, Velvetleaf (velvetleaf; 250 g ai/ha, scale 0-100, preemergence): 100
Plant response rating, Velvetleaf (velvetleaf; 500 g ai/ha, scale 0 to 100 (0 no effect, 100 complete control), visual, 12 to 14 days, preemergence): 100
Rice plant response rating (rice; 62 g ai/ha, scale 0 to 100): 65
Rice plant response rating (rice; [2]): 65
Rice plant response rating (rice; [3]): 75
Plant response rating, Rice (rice; [4]): 80
Ducksalad plant response rating (ducksalad; 62 g ai/ha, scale 0 to 100): 85
Ducksalad plant response rating (ducksalad; [2]): 85
Ducksalad plant response rating (ducksalad; [3]): 85
Plant response rating, Ducksalad (ducksalad; [4]): 95
Barnyardgrass plant response rating (barnyardgrass; [5]): 55
Barnyardgrass plant response rating (barnyardgrass; [2]): 85
Barnyardgrass plant response rating (barnyardgrass; [3]): 90
Plant response rating, Barnyardgrass (barnyardgrass; [4]): 95

CCn1nc(C(C)(C)C)cc1C(=O)Nc1cc(C#N)ccc1F [Compound 140]
Plant response rating (0 = no effect, 100 = complete control), Cocklebur (cocklebur; 62 g ai/ha): 0
Plant response rating, Cocklebur (cocklebur; [6]): 0
Plant response rating, Cocklebur (cocklebur; [7]): 0
Cocklebur plant response rating (cocklebur; [8]): 0
Plant response rating (0 = no effect, 100 = complete control), Corn (corn; 62 g ai/ha): 0
Plant response rating, Corn (corn; [6]): 0
Plant response rating, Corn (corn; [7]): 0
Corn plant response rating (corn; [8]): 0
Plant response rating (0 = no effect, 100 = complete control), Crabgrass, Large (large crabgrass; 62 g ai/ha): 0
Plant response rating, Crabgrass, Large (large crabgrass; [6]): 65
Plant response rating, Crabgrass, Large (large crabgrass; [7]): 75
Crabgrass, Large plant response rating (large crabgrass; [8]): 100
Plant response rating (0 = no effect, 100 = complete control), Nightshade (eastern black nightshade; 62 g ai/ha): 0
Plant response rating, Nightshade (eastern black nightshade; [6]): 0
Nightshade plant response rating (eastern black nightshade; [8]): 95
Plant response rating (0 = no effect, 100 = complete control), Nutsedge, Yellow (yellow nutsedge; 62 g ai/ha): 0
Plant response rating, Nutsedge, Yellow (yellow nutsedge; [6]): 0
Nutsedge, Yellow plant response rating (yellow nutsedge; [8]): 0
Plant response rating (0 = no effect, 100 = complete control), Ragweed (common ragweed; 62 g ai/ha): 0
Plant response rating, Ragweed (common ragweed; [6]): 0
Ragweed plant response rating (common ragweed; [8]): 95
Plant response rating, Velvetleaf (velvetleaf; 125 g ai/ha, scale 0 (no effect) to 100 (complete control), visual, 12 to 14 days, preemergence): 0
Velvetleaf plant response rating (velvetleaf; [8]): 20
Rice plant response rating (rice; [5]): 0
Rice plant response rating (rice; [2]): 0
Rice plant response rating (rice; [3]): 0
Plant response rating, Rice (rice; [4]): 0
Ducksalad plant response rating (ducksalad; [5]): 0
Ducksalad plant response rating (ducksalad; [2]): 0
Ducksalad plant response rating (ducksalad; [3]): 0
Plant response rating, Ducksalad (ducksalad; [4]): 20
Barnyardgrass plant response rating (barnyardgrass; [5]): 0
Barnyardgrass plant response rating (barnyardgrass; 125 g ai/ha, scale of 0 to 100, 0 is no effect, 100 is complete control): 0
Barnyardgrass plant response rating (barnyardgrass; [3]): 0
Plant response rating, Barnyardgrass (barnyardgrass; [4]): 15
